For assay [1], the target named is T1, Tyrosine-protein phosphatase non-receptor type 1 (Homo sapiens, UniProt P18031).
T1 sequence (P18031 whole entry): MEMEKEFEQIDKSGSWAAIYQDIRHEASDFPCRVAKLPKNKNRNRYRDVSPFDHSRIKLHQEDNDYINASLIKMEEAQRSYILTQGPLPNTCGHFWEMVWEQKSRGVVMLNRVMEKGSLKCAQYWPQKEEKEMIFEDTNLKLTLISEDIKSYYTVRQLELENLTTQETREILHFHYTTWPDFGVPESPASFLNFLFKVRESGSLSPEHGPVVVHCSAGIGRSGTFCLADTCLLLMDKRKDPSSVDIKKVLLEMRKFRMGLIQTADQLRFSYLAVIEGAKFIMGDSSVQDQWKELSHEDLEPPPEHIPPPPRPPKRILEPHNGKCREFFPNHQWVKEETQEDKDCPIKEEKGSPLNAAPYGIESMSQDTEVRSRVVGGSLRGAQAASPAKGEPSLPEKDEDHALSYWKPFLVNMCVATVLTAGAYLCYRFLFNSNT
Put plainly: Inhibition of recombinant human PTP1B expressed in Escherichia coli using pNPP as substrate preincubated for 10 mins followed by substrate addition for 30 mins and measured at 5 mins interval for 30 mins.

The subject of assay [2] is Mus musculus. Put plainly: Antinociceptive activity in Kunming mouse model assessed as inhibition of acetic acid-induced writhes at 0.08 mg/kg, ip pretreated for 30 mins followed by acetic acid challenge and measured for 30 mins post acetic acid challenge relative to control. The assay is classed as functional.
In assay [3] the test system is Mus musculus. The assay can be described thus: Antinociceptive activity in Kunming mouse model assessed as inhibition of acetic acid-induced writhes at 5 mg/kg, ip pretreated for 15 mins followed by acetic acid challenge and measured for 20 mins post acetic acid challenge relative to control. It counts as functional.
The subject of assay [4] is Mus musculus. The assay can be described thus: Antinociceptive activity in ip dosed Kunming mouse model assessed as inhibition of acetic acid-induced writhes pretreated for 15 mins followed by acetic acid challenge and measured for 20 mins post acetic acid challenge. The assay is classed as functional. The conditions noted are these: read-out: ID50 (the source's name).

In assay [5] the target is T1, Tyrosine-protein phosphatase non-receptor type 1. The assay can be described thus: Inhibition of recombinant PTP1B catalytic domain (unknown origin) using pNPP as substrate.
Assay [6] has as its system Mus musculus. The assay can be described thus: Antinociceptive activity in Kunming mouse model assessed as inhibition of acetic acid-induced writhes at 10 mg/kg, ip pretreated for 15 mins followed by acetic acid challenge and measured for 20 mins post acetic acid challenge relative to control. The assay is classed as functional.
Another assay relates to Pieris brassicae. Put plainly: Antifeedant activity in Pieris brassicae measured 24 hrs post leaf feeding by leaf disc method. It counts as functional, organism-based.
A further assay deals with Influenza A virus. The assay can be described thus: Antiviral activity against Influenza A virus (A/Hanfang/359/95(H3N2)) infected in MDCK cells assessed as reduction in virus-induced cytopathogenicity. The assay is classed as functional, organism-based. (In general: Protection from cytopathic effect is a common read-out in antiviral testing.)
The target of assay [7] is T1, Tyrosine-protein phosphatase non-receptor type 1. The assay can be described thus: Inhibition of recombinant human PTP1B expressed in Escherichia coli using pNPP as substrate preincubated for 30 mins followed by substrate addition for 45 mins and measured at 5 mins interval for 30 mins.
The subject of the next assay is Coxsackievirus B3. The assay can be described thus: Antiviral activity against Coxsackievirus B3 infected in African green monkey Vero cells. It counts as functional, organism-based. The conditions noted are these: Enterovirus B.

Results on 20 compounds are retold here after ChEMBL document CHEMBL4316594, “An overview of grayanane diterpenoids and their biological activities from the Ericaceae family in the last seven years” (Eur J Med Chem, 2019).

Each structure is given as a SMILES string.

In general, IC50 refers to the concentration at which inhibition is half-maximal. With `CO[C@@H]1C[C@]23C[C@@](C)(O)[C@H](CC[C@H]2[C@](C)(C2=CO[C@H](OC)C(C)(C)C2=O)O1)[C@H]3O`, in [1], the 50% inhibitory concentration (IC50) came to 19.9 µM.

For orientation: inhibition in vivo means the share of the control response that was lost under treatment. On to `CC1(C)[C@@H](O)[C@H](Cl)[C@H]2[C@](C)(O)[C@@H]3CC[C@@H]4[C@@H](O)[C@]3(C[C@@]4(C)O)[C@H](O)[C@@H](O)[C@@]21O`, for which the inhibition in vivo at 0.08 mg/kg in the assay on Mus musculus [2] turned out to be 49.8%. For `CO[C@@H]1O[C@H]2O[C@@H]3C[C@]45C[C@@](C)(O)[C@H](CC[C@H]4[C@@](C)(O3)[C@H]2CC1(C)C)[C@H]5O`, the IC50 in [1] was 42.4 µM. Turning to `CC(O)C(=O)O[C@@H]1[C@H]2CC[C@H]3[C@@](C)(O)[C@@H]4[C@@H]5O[C@@H]5C(C)(C)[C@@]4(O)[C@H](O)C(=O)[C@@]13C[C@@]2(C)O` (stereo partly drawn), in the assay on Mus musculus [2], the inhibition in vivo at 0.08 mg/kg amounted to 37.6%. Consider `CC(C)(O)[C@]12OC(=O)C[C@H]1[C@](C)(O)[C@@H]1CC[C@@H]3[C@@H](O)[C@@]1([C@H](O)[C@H]2O)[C@@H](O)[C@@]3(C)O`, for which the inhibition in vivo at 5 mg/kg with Mus musculus [3] came out at 63.5%. Besides, the ED50 in the assay with Mus musculus [4] was found to be 1.24 mg/kg. Consider `CC1=C[C@@H]2O[C@@]3(C)[C@@H]4C[C@H](O)[C@H]1[C@]24C[C@@H](O)[C@@]1(O)[C@H]3[C@@H]2O[C@@H]2C1(C)C`, for which, in assay [1], the IC50 came out at 24.3 µM. Take `CO[C@H]1C[C@]23C[C@@](C)(O)[C@H](CC[C@H]2[C@](C)(C2=CO[C@H](OC)C(C)(C)C2=O)O1)[C@H]3O`: the IC50 in assay [1] came to 16.7 µM. Take `C=C1[C@H]2C[C@H](O)C(C)(C)[C@@]2(O)[C@H](O)C[C@]23C=C(C)[C@H](CC[C@@H]12)[C@H]3O`: the IC50 in assay [5] stood at 3.14 µM. `C[C@]12CC[C@H](O)[C@@]3(C)[C@@H]4CC[C@@H]5C[C@]4(C[C@@]5(C)O)C[C@@]3(OC1=O)C2=O`: in the assay with Mus musculus [6], the inhibition in vivo at 10 mg/kg came to 45%. Besides, the “inhibition (INH)” value with Pieris brassicae came to 45%. On to `CC1(C)[C@H]2O[C@H]2[C@H]2[C@@]3(C)O[C@H](C[C@@]45C=C[C@@H](C[C@H]43)[C@](C)(O)C5)[C@]21C`, for which, in the assay with Influenza A virus, the IC50 turned out to be 19.2 µM. In the assay with Pieris brassicae, `CCC(=O)O[C@@H]1[C@@H](OC(C)=O)[C@@]2([C@](C)(O)CCl)OC(=O)C[C@H]2[C@](C)(O)[C@@H]2CC[C@@H]3[C@@H](OC(C)=O)[C@]12[C@@H](OC(C)=O)[C@@]3(C)OC(C)=O` had an EC50 of 10.07 microg/cm2. The same measure, in the same setting: the same measure for `CCC(=O)O[C@@H]1[C@H]2CC[C@H]3[C@@](C)(O)[C@@H]4CC(=O)O[C@]4([C@](C)(O)CCl)[C@H](OC(C)=O)[C@@H](OC(C)=O)[C@@]13[C@@H](OC(C)=O)[C@@]2(C)OC(C)=O`: 5.33 microg/cm2. `Cc1cccc(C[C@H]2O[C@]3(C)O[C@@]24[C@@H]([C@@H](O)[C@H](O)C4(C)C)[C@H]3C)c1`: the IC50 in [7] stood at 32.2 µM. As to `CO[C@H]1[C@H](O)C(C)(C)[C@@]2(O)[C@H](O)[C@@H](O)[C@]34C[C@@](C)(O)[C@H](CC[C@H]3[C@@](C)(O)[C@H]12)[C@H]4O`, the inhibition in vivo at 0.08 mg/kg in the assay with Mus musculus [2] stood at 56.8%.

On to `CC(=O)[C@@H]1C[C@@H](O)[C@H]2[C@@H](O)[C@@]1(C[C@H]1OC(=O)C(C)(C)[C@]1(O)CCO)C[C@@]2(C)O`, for which, in the assay on Coxsackievirus B3, the concentration for half-maximal inhibition (IC50) was found to be 27.7 µM.

Regarding `CC1(C)CCC[C@H](O)[C@@]2(C)[C@@H]3CC[C@@H]4C[C@@]3(C[C@H]2C1=O)C[C@@]4(C)O`, the “inhibition (INH)” value in the assay with Pieris brassicae is 45%. `CC1=C[C@]23C[C@H]1CC[C@H]2[C@]1(C)[C@@H](O)CCCC(C)(C)C(=O)[C@@H]1C3`: in the assay on Pieris brassicae, the “inhibition (INH)” value is given as 45%. In the case of `Cc1cccc(C[C@H]2O[C@]3(C)O[C@@]24[C@@H]([C@@H](O)[C@H](O)C4(C)C)[C@@H]3C)c1`, the IC50 in assay [7] turned out to be 23 µM. For the compound `CC(C)(O)[C@]12OC(=O)C[C@H]1[C@](C)(O)[C@@H]1[C@H](O)C[C@@H]3[C@@H](O)[C@@]1([C@H](O)[C@H]2O)[C@@H](O)[C@@]3(C)O`, the inhibition in vivo at 5 mg/kg with Mus musculus [3] turned out to be 69.9%. Further, the ED50 with Mus musculus [4] turned out to be 0.72 mg/kg. Take `C=C1[C@H]2C[C@H](O)C(C)(C)[C@@]2(O)[C@H](O)C[C@]23C[C@@](C)(O)[C@H](CC[C@@H]12)[C@H]3O`: the IC50 in [5] was found to be 24.5 µM.
